Among the data in PubChem BioAssay AID330 (DTP/NCI, 2004) are T/C values, retold here.

Structures are written as SMILES. “And” between values parts separate entries of the source, which are not always exact repeats. Equal values may be shown once. Toxic doses and inconclusive results are not listed.

For this test, the system named is P388 leukemia ip, CD2F1 mice, survival T/C. Briefly: NCI In Vivo Anticancer Drug Screen. Data for tumor model P388 Leukemia (intraperitoneal) in CD2F1 (CDF1) mice. The note with it: endpoint: median survival time, higher = longer survival. In short, it runs like this: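 Mice carrying the transplanted tumor received test compound or vehicle. Survival was recorded in each group, and the value is the treated-group measurement divided by that of the vehicle-treated control group.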

The mark [1] stands for this setting: dose: 50.0 mg/kg/injection, schedule: Q01DX005 (ip), vehicle: Klucel (hydroxypropylcellulose) (HPC).
Setting [2] is: dose: 100.0 mg/kg/injection, schedule: Q01DX005 (ip), vehicle: Klucel (hydroxypropylcellulose) (HPC).
Setting [3] is: dose: 200.0 mg/kg/injection, schedule: Q01DX005 (ip), vehicle: Klucel (hydroxypropylcellulose) (HPC).
[4] abbreviates: dose: 50.0 mg/kg/injection, schedule: Q01DX009 (ip), vehicle: Klucel (hydroxypropylcellulose) (HPC).
[5] abbreviates: dose: 100.0 mg/kg/injection, schedule: Q01DX009 (ip), vehicle: Klucel (hydroxypropylcellulose) (HPC).
The mark [6] stands for this setting: dose: 200.0 mg/kg/injection, schedule: Q01DX009 (ip), vehicle: Klucel (hydroxypropylcellulose) (HPC).
The mark [7] stands for this setting: dose: 100.0 mg/kg/injection, schedule: Q04DX003 (ip), vehicle: saline with Tween-80.
[8] abbreviates: dose: 25.0 mg/kg/injection, schedule: Q04DX002 (ip), vehicle: saline with Tween-80.
Setting [9] is: dose: 50.0 mg/kg/injection, schedule: Q04DX002 (ip), vehicle: saline with Tween-80.
Where [10] appears, read: dose: 100.0 mg/kg/injection, schedule: Q04DX002 (ip), vehicle: saline with Tween-80.
The mark [11] stands for this setting: dose: 25.0 mg/kg/injection, schedule: Q01DX005 (ip), vehicle: Klucel (hydroxypropylcellulose) (HPC).
The mark [12] stands for this setting: dose: 12.5 mg/kg/injection, schedule: Q01DX009 (ip), vehicle: Klucel (hydroxypropylcellulose) (HPC).
[13] abbreviates: dose: 25.0 mg/kg/injection, schedule: Q01DX009 (ip), vehicle: Klucel (hydroxypropylcellulose) (HPC).
[14] abbreviates: dose: 60.0 mg/kg/injection, schedule: Q01DX005 (ip), vehicle: saline.
Setting [15] is: dose: 120.0 mg/kg/injection, schedule: Q01DX005 (ip), vehicle: saline.
Where [16] appears, read: dose: 240.0 mg/kg/injection, schedule: Q01DX005 (ip), vehicle: saline.

For the compound `C=C(CC(O)c1ccccc1)C(=O)Nc1ccccc1OC` (stereo not drawn), the T/C (dose: 50.0 mg/kg/injection, schedule: Q01DX005 (ip), vehicle: saline) was 98 % of control; the T/C (dose: 100.0 mg/kg/injection, schedule: Q01DX005 (ip), vehicle: saline) is 103 % of control; the T/C (dose: 200.0 mg/kg/injection, schedule: Q01DX005 (ip), vehicle: saline) was 100 % of control.
For `C#CC1CCC(NC(=O)NCCCCCCNC(=O)NC2CCC(C#C)CC2)CC1` (stereo not drawn), the T/C runs as follows: under setting [1], 90 % of control; under setting [2], 94 % of control; under setting [3], 86 % of control.
For `BrC1CCC(OCc2ccccc2)C(OCc2ccccc2)C1` (stereo not drawn), the T/C was 100 % of control under setting [4], 98 % of control under setting [5] and 97 % of control under setting [6].
For `CNC(=O)Oc1cccc(NC(=S)SC)c1`, the T/C (dose: 12.5 mg/kg/injection, schedule: Q04DX003 (ip), vehicle: saline with Tween-80) is 106 % of control; the T/C (dose: 25.0 mg/kg/injection, schedule: Q04DX003 (ip), vehicle: saline with Tween-80) is 104 % of control; the T/C (dose: 50.0 mg/kg/injection, schedule: Q04DX003 (ip), vehicle: saline with Tween-80) is 100 % of control; the T/C under setting [7] was 104 % of control.
For `CN=C(N)N/N=C(\c1ccc(F)cc1)c1ccccc1Cl`, the T/C is 101 % of control under setting [8], 100 % of control under setting [9] and 98 % of control under setting [10].
On to `CC(=O)Oc1c(OC(C)=O)c(C=O)c2c(OC(C)=O)c(-c3c(C)cc4c(C(C)C)c(OC(C)=O)c(OC(C)=O)c(C=O)c4c3OC(C)=O)c(C)cc2c1C(C)C`, for which the T/C reads like this: (dose: 12.5 mg/kg/injection, schedule: Q01DX005 (ip), vehicle: Klucel (hydroxypropylcellulose) (HPC)) 102 % of control; under setting [11], 107 % of control; under setting [1], 103 % of control and 111 % of control.
As to `Nc1nc2c(c(=O)[nH]1)N(C(=O)c1ccc(S(=O)(=O)F)cc1)C(CNc1ccc(C(=O)NC(CCC(=O)O)C(=O)O)cc1)CN2` (stereo not drawn), the T/C runs as follows: (dose: 50.0 mg/kg/injection, schedule: Q04DX003 (ip), vehicle: other) 104 % of control; (dose: 100.0 mg/kg/injection, schedule: Q04DX003 (ip), vehicle: other) 104 % of control; (dose: 200.0 mg/kg/injection, schedule: Q04DX003 (ip), vehicle: other) 113 % of control.
For `C=CCCC(=O)OC(C)(C)C`, the T/C reads like this: under setting [12], 102 % of control; under setting [13], 101 % of control; under setting [4], 104 % of control; under setting [5], 101 % of control; under setting [6], 103 % of control.
As to `CC1=Cc2cc(C)cc(C)c2C1=O`, the T/C (dose: 50.0 mg/kg/injection, schedule: Q01DX005 (ip), vehicle: saline with Tween-80) is 90 % of control; the T/C (dose: 100.0 mg/kg/injection, schedule: Q01DX005 (ip), vehicle: saline with Tween-80) is 93 % of control; the T/C (dose: 200.0 mg/kg/injection, schedule: Q01DX005 (ip), vehicle: saline with Tween-80) was 96 % of control.
Take `CC[C@H](CC[C@@H](C)[C@H]1CC[C@H]2[C@@H]3CC=C4C[C@@H](OC(C)=O)CC[C@]4(C)[C@H]3CC[C@]12C)C(C)C`: the T/C is 99 % of control and 110 % of control (dose: 6.25 mg/kg/injection, schedule: Q01DX009 (ip), vehicle: Klucel (hydroxypropylcellulose) (HPC)); 105 % of control and 107 % of control under setting [12]; 104 % of control and 92 % of control under setting [13]; 98 % of control and 105 % of control under setting [4]; 100 % of control and 92 % of control (dose: 75.0 mg/kg/injection, schedule: Q01DX009 (ip), vehicle: Klucel (hydroxypropylcellulose) (HPC)).
As to `COc1ccc(-n2c(CSc3ccc(Cl)cc3)n[nH]c2=S)cc1`, the T/C was 104 % of control (dose: 60.0 mg/kg/injection, schedule: Q01DX005 (ip), vehicle: saline with Tween-80); 96 % of control (dose: 120.0 mg/kg/injection, schedule: Q01DX005 (ip), vehicle: saline with Tween-80); 95 % of control (dose: 240.0 mg/kg/injection, schedule: Q01DX005 (ip), vehicle: saline with Tween-80).
In the case of `COc1cc2c(cc1O)c(O)cc1c3cc(OC)c(OC)cc3c[n+](C)c21`, the T/C by setting is: under setting [11], 152 % of control; under setting [1], 153 % of control and 160 % of control; under setting [3], 156 % of control and 159 % of control.
On to `CCOP(=O)(Nc1ccc2c(c1)C(=O)c1ccccc1-2)OCC`, for which the T/C by setting is: under setting [1], 102 % of control; under setting [2], 96 % of control; under setting [3], 96 % of control.
In the case of `Nc1c(/C=C/c2cc3cc(C4=NCCN4)ccc3o2)[nH]c2cc(C3=NCCN3)ccc12`, the T/C is, setting by setting: under setting [1], 245 % of control; under setting [2], 110 % of control and 227 % of control.
Turning to `COc1cc([C@H]2OC[C@H]3[C@@H]2CO[C@@H]3c2cc(OC)c3c(c2)OCO3)cc(OC)c1OC`, the T/C reads like this: (dose: 9.75 mg/kg/injection, schedule: Q01DX009 (ip), vehicle: saline + Tween-80 + alcohol) 93 % of control; (dose: 19.5 mg/kg/injection, schedule: Q01DX009 (ip), vehicle: saline + Tween-80 + alcohol) 106 % of control; (dose: 39.0 mg/kg/injection, schedule: Q01DX009 (ip), vehicle: saline + Tween-80 + alcohol) 99 % of control; (dose: 78.0 mg/kg/injection, schedule: Q01DX009 (ip), vehicle: saline + Tween-80 + alcohol) 107 % of control.
Take `CCCN1C(=O)C2C3CCC(O3)C2C1=O` (stereo not drawn): the T/C under setting [14] was 100 % of control, the T/C under setting [15] is 109 % of control and the T/C under setting [16] is 98 % of control.
Consider `COC(=O)c1ccnc2nc[nH]c12`, for which the T/C is, setting by setting: (dose: 100.0 mg/kg/injection, schedule: Q01DX001 (ip), vehicle: water) 103 % of control; (dose: 200.0 mg/kg/injection, schedule: Q01DX001 (ip), vehicle: water) 104 % of control; (dose: 400.0 mg/kg/injection, schedule: Q01DX001 (ip), vehicle: water) 104 % of control.
For `COC(=O)C(C)NC(=O)Cc1ccccc1` (stereo not drawn), the T/C under setting [7] was 104 % of control; the T/C (dose: 200.0 mg/kg/injection, schedule: Q04DX003 (ip), vehicle: saline with Tween-80) is 100 % of control; the T/C (dose: 400.0 mg/kg/injection, schedule: Q04DX003 (ip), vehicle: saline with Tween-80) was 90 % of control.
Turning to `Cc1ccc(/C=C/c2ccc([N+](=O)[O-])cc2)cc1`, the T/C under setting [1] was 105 % of control and 97 % of control; the T/C under setting [2] is 90 % of control and 96 % of control; the T/C under setting [3] is 93 % of control; the T/C (dose: 400.0 mg/kg/injection, schedule: Q01DX005 (ip), vehicle: Klucel (hydroxypropylcellulose) (HPC)) is 102 % of control and 103 % of control.
As for `O=C1C(Cl)=C(NCCCC2CCCN3CCCCC23)C(=O)c2ccccc21` (stereo not drawn), the T/C reads like this: (dose: 25.0 mg/kg/injection, schedule: Q04DX002 (ip), vehicle: Klucel (hydroxypropylcellulose) (HPC)) 100 % of control; (dose: 50.0 mg/kg/injection, schedule: Q04DX002 (ip), vehicle: Klucel (hydroxypropylcellulose) (HPC)) 101 % of control; (dose: 100.0 mg/kg/injection, schedule: Q04DX002 (ip), vehicle: Klucel (hydroxypropylcellulose) (HPC)) 114 % of control and 94 % of control.
Take `O=C1N(C2CCCCC2)C(/C=C/c2ccccc2)C1(c1ccccc1)c1ccccc1` (stereo not drawn): the T/C was 96 % of control under setting [11]; 94 % of control under setting [1]; 88 % of control under setting [2]; 89 % of control and 91 % of control under setting [3].
Turning to `C[CH2][Sn]([CH2]C)([CH2]C)[NH]S(=O)(=O)c1ccc(C)cc1`, the T/C (dose: 3.12 mg/kg/injection, schedule: Q01DX009 (ip), vehicle: Klucel (hydroxypropylcellulose) (HPC)) is 105 % of control.
Turning to `CN=C(N)N/N=C(\c1ccccc1)c1ccc(I)cc1`, the T/C runs as follows: under setting [8], 104 % of control; under setting [9], 107 % of control; under setting [10], 107 % of control.
`CC(=O)/C(=C\c1ccccc1Cl)C(=O)CCN(C)C`: the T/C (dose: 40.0 mg/kg/injection, schedule: Q01DX005 (ip), vehicle: saline) was 115 % of control; the T/C under setting [14] is 107 % of control and 112 % of control; the T/C under setting [15] is 121 % of control; the T/C under setting [16] is 122 % of control.
